Source: patent US20030229004A1, “Modulation of tumor cells using BER inhibitors in combination with a sensitizing agent and DSBR inhibitors” (Pangene Corporation, priority 2002, published 2003)
Like-named read-outs stand apart in the source and are kept apart here.

Key:
A2780/cp70 cells = experiment: Clonogenic survival in A2780/cp70 (MMR-deficient) ovary carcinoma cells; type: cell-based, human
Procedure: (§1) FIG. 1. Effect of Methoxyamine (MX) on cytotoxicity induced by IUDR in human A2780/cp70 (MMR-deficient) and […]) ovary carcinoma cell lines. Cells were treated for 48 hours with IUDR alone or with IUDR and 6 mM Methoxyamine. Surviving colonies were counted in triplicate 7-10 days after treatment. Error bars, Standard Error. FIG. 5. Effect of Methoxyamine (MX) on cytotoxicity induced by FaraA in human A2780/cp70 (MMR-deficient) and […]) ovary carcinoma cell lines. Cells were treated for 48 hours with FaraA alone or with FaraA and 6 mM Methoxyamine. Surviving colonies were counted in triplicate 7-10 days after treatment. Error bars, Standard Error. For clonogenic survival studies in A2780/cp70 and […], exponentially growing cells were similarly diluted and plated in complete RPMI 1640 medium (+400 μg/ml Hygromycin in […]). […] IUDR-containing medium was then removed in cell populations, cultures were washed with PBS and incubated at 37° C. for 7-10 days in tissue culture medium containing 10% defined FBS (+dThd). Cell populations were treated simultaneously with IUDR and 6 mM Methoxyamine (MX) (Sigma, St Louis, Mo.) for 48 hours; plates were then washed with PBS and surviving colonies were counted after incubation at 37° C. in drug-free medium for 7-10 days.

HCT116 cells [1] = experiment: Clonogenic survival in HCT116 (MMR-deficient) colon carcinoma cells; type: cell-based, human
Procedure: (§2) FIG. 2. […] Cells were treated for 48 hours with IUDR alone (closed symbols) or with IUDR and 6 mM Methoxyamine (open symbols). Surviving colonies were counted in triplicate 7-10 days after treatment. Error bars, Standard Error. FIG. 4. […] Cells were treated for 24 hours with FaraA alone or with FaraA and 6 mM Methoxyamine. Surviving colonies were counted in triplicate 7-10 days after treatment. Error bars, Standard Error. The human colon cancer cell line HCT116 lacks MLH1 expression and their MMR positive subline (HCT116/chr 3-6) has hMLH1 reintroduced by chromosome 3 transfer. For clonogenic survival studies in HCT116 and HCT116/3-6 cells, exponentially growing cells were similarly diluted and plated in complete D-MEM medium (+400 μg/ml G418 in HCT116/3-6 cells). […] IUDR-containing medium was then removed in HCT116 cell populations, cultures were washed with PBS and incubated at 37° C. for 7-10 days in tissue culture medium containing 10% defined FBS (+dThd). HCT116 cell populations were treated simultaneously with IUDR and 6 mM Methoxyamine (MX) (Sigma, St Louis, Mo.) for 48 hours; plates were then washed with PBS and surviving colonies were counted after incubation at 37° C. in drug-free medium for 7-10 days.

HCT116/3-6 cells = experiment: Clonogenic survival in HCT116/3-6 (MMR-proficient) colon carcinoma cells; type: cell-based, human; conditions: for IC50: Homo sapiens, HCT-116, 24 hours
Procedure: as §2

EM9 cells = experiment: FaraA cytotoxicity in XRCC1 mutant EM9 CHO cells; type: cell-based
Procedure: (§3) FIG. 3. Effect of Methoxyamine (MX) on cytotoxicity induced by FaraA in CHO cells proficient or deficient in Xrcc1 protein. Cells were treated for 24 hours with FaraA alone or with FaraA and 6 mM Methoxyamine. Surviving colonies were counted in triplicate 7-10 days after treatment and the experiment was repeated three times. Error bars, Standard Error.
(§4) AA8 and EM9 cells were obtained from the American Tissue Culture Collection (Manassas, Va.). H9T3 cells were a gift of Dr. L. H. Thompson (Lawrence Livermore National Laboratory, Livermore, Calif.). The parental CHO line clone AA8 was isolated as being heterozygous at the aprt locus; the mutant EM9 clone was isolated from AA8 cells following mutagenesis with EMS and carry a frameshift mutation in the XRCC1 gene resulting in a truncated polypeptide lacking two thirds of the normal sequence. […] H9T3-7-1 cells (referred in the text as H9T3) were derived from EM9 following transfection with a cosmid containing XRCC1 cDNA which corrects the DNA repair defect of EM9.
(§5) We tested whether MX, a small molecule known to be BER inhibitor, could sensitize CHO cells to FaraA cytotoxicity.

[2] = Plasma levels of IPDR in athymic mice; type: in vivo; conditions: 250 mg/kg ip; samples 0-350 min; athymic mice with U87 MG tumors
Procedure: Athymic mice are treated with MX-IPDR or IPDR. Tumor fragment of about 2×2×2 mm derived from Human U87 MG Glioma Cells are implanted s.c. into the axilliary region of the mice. The mice are then treated ip with MX-IPDR at 250 mg/kg or IPDR at 250 mg/kg and samples taken at 0, 2, 5, 15, 45, 75, 120, 150, 210 and 350 min after treatment. The IPDR plasma levels are determined as previously reported by Kinsella et al. {Kinsella, 2000 #121}.

[3] = daily p.o. dosing of IPDR for 6 or 14 days; nude mice; cited from earlier work
[4] = test system: human colon and brain cancer xenograft models; conditions: daily p.o. dosing of IPDR for 6 or 14 days; human colon and brain cancer xenografts; cited from earlier work
A2780/cp70+chr3 cells = experiment: Clonogenic survival in A2780/cp70+chr3 (MMR-proficient) ovary carcinoma cells; type: cell-based, human
Procedure: as §1

HCT116 cells [5] = experiment: Clonogenic survival of HCT116 with poly IUDR and IUDR (Example 8); type: cell-based, human; conditions: 1, 3, 10 μM for 48 hours
Procedure: Human colon cells (HCT 116) are treated with poly IUDR, an oligonucleotide comprised of IUDR, and IUDR. For clonogenic survival studies in HCT116, exponentially growing cells are similarly diluted and plated in complete D-MEM medium (+400 μg/ml G418 in HCT116/3-6 cells). Poly IUDR and IUDR treatment (1, 3, 10 μM) in HCT116 is for 48 hours in D-MEM (-G418) medium containing 10% dialyzed FBS, and the drug-containing medium is replaced after the initial 24 hours. Compound-containing medium is then removed from the HCT116 cell cultures, the cultures are washed with PBS, and incubated at 37° C. for 7-10 days in tissue culture medium containing 10% defined FBS (+dThd). Surviving colonies are counted after incubation at 37° C. in drug-free medium for 7-10 days.

AA8 cells = experiment: FaraA cytotoxicity in wild type AA8 CHO cells; type: cell-based; conditions: 6 mM MX
Procedure: as §3, §4, §5

H9T3 cells = experiment: FaraA cytotoxicity in XRCC1 reconstituted H9T3 CHO cells; type: cell-based; conditions: 6 mM MX
Procedure: as §3, §4, §5

[6] = test system: Human MDA-MB-231 breast cancer cells; experiment: MDA-MB-231 breast cancer xenografts in athymic mice, with Doxorubicin; type: in vivo; conditions: MDA-MB-231 xenograft; i.p. days 1-5, 3 cycles; all mice also Doxorubicin 1.5 mg/kg day 4; measured at day 49
Procedure: FIG. 6. Effect of Rad51 antisense on tumor growth delay induced by Doxorubicin on Human MDA-MB-231 Breast cancer cells grown as xenografts in Athymic Mice. The mice were treated i.p. with Rad51 antisense at 5 mg/kg on days 1 through 5, MX at 2 mg/kg on days 1 through 5, and with Doxorubicin at 1.5 mg/kg on day 4. The cycle was repeated three times with a two-day rest period between cycles.
(§6) Athymic mice are treated with Rad51 antisense alone, MX alone, and Rad51 antisense in combination with MX. All mice are also treated with Doxorubicin. Tumor fragment of about 2×2×2 mm derived from Human MDA-MB-231 breast cancer cells Athymic mice are implanted s.c. into the axilliary region of the mice. The mice are treated i.p. with Rad51 antisense at 5 mg/kg on days 1 through 5, MX at 2 mg/kg on days 1 through 5, and Doxorubicin at 1.5 mg/kg on day 4. The cycle is repeated three times with a two-day rest period between cycles. The animals are euthanatized 49 days after the beginning of the experiment, and the tumor size is measured by calipers.

[7] = test system: Human U87 MG glioma cells; experiment: U87 MG glioma xenografts in athymic mice, with IPDR; type: in vivo; conditions: U87 MG xenograft; i.p. days 1-5, 3 cycles; all mice also IPDR 250 mg/kg day 4; measured at day 49
Procedure: as §6, with “IPDR.” for “Doxorubicin.”, “U87 MG glioma” for “MDA-MB-231 breast cancer”, “cells” for “cells Athymic mice”, “IPDR” for “Doxorubicin”, “250” for “1.5”

[8] = test system: wild type and Polβ-complemented mouse fibroblasts; conditions: cited from earlier work
[9] = IUDR 48 hours, colonies counted after 7-10 days, read-out: IC50 for IUDR alone

SMILES: Nc1nc(F)nc2c1ncn2[C@@H]1O[C@H](CO)[C@@H](O)[C@@H]1O [FaraA, Fludarabine]
- IC50 (A2780/cp70 cells; Homo sapiens, FaraA + 6 mM MX, 48 hours, read-out: IC50 for FaraA with 6 mM MX): 4 µM
- IC50 (A2780/cp70 cells; Homo sapiens, FaraA alone, 48 hours, read-out: IC50 for FaraA alone): 11 µM
- IC50 (HCT116 cells [1]; Homo sapiens, HCT-116, FaraA + 6 mM MX, 24 hours, read-out: IC50 for FaraA with 6 mM MX): 3 µM
- IC50 (HCT116 cells [1]; Homo sapiens, HCT-116, FaraA alone, 24 hours, read-out: IC50 for FaraA treatment): 9 µM
- IC50 (HCT116/3-6 cells; HCT116/3-6 cells, FaraA + 6 mM MX, read-out: IC50 for FaraA in the presence of 6 mM MX): 3 µM
- IC50 (HCT116/3-6 cells; HCT116/3-6 cells, FaraA alone, read-out: IC50 for FaraA): 5 µM
- IC50 (EM9 cells; Cricetulus griseus, CHO, XRCC1 mutant EM9 cells, FaraA alone, 24 hours): 7.5 µM

SMILES: O=c1ncc(I)cn1[C@H]1C[C@H](O)[C@@H](CO)O1 [IPDR, 5-iodo-2-pyrimidinone-2′-deoxyribose]
- Plasma IPDR levels required to act as a radiosensitizer [2]: acceptable level
- Systemic toxicity [3]: no significant systemic toxicity
- Tumor radiosensitization [4]: significant radiosensitization

SMILES: O=c1[nH]c(=O)n([C@H]2C[C@H](O)[C@@H](CO)O2)cc1I [IUDR, IodoUridineDeoxyRibose]
- IC50 (A2780/cp70 cells; [9]): 8 µM
- IC50 (A2780/cp70 cells; IUDR + 6 mM MX for 48 hours, read-out: IC50 for IUDR with MX treatment): 1 µM
- Response to IUDR alone and to MX+IUDR compared with A2780/cp70 (A2780/cp70+chr3 cells; MMR positive subline A2780/cp70 chr3): qualitatively similar
- IC50 (HCT116 cells [1]; [9]): 4.5 µM
- IC50 (HCT116 cells [1]; IUDR + MX for 48 hours (method 6 mM MX, result sentence 12 mM MX), read-out: IC50 for IUDR with MX treatment): 0.5 µM
- Response to IUDR alone and to MX+IUDR compared with HCT116 (HCT116/3-6 cells; MMR positive subline HCT116/chr3-6): qualitatively similar
- Cytotoxicity in clonogenic survival (HCT116 cells [5]): greatly sensitized

SMILES: CON [MX, Methoxyamine]
- Sensitization to IUDR-induced cytotoxicity by MX (A2780/cp70 cells; 6 mM MX, 48 hours): greatly sensitized
- Sensitization to IUDR-induced cytotoxicity by MX (A2780/cp70+chr3 cells; cp70/ch3 cells, 6 mM MX, 48 hours): greatly sensitized
- Sensitization to IUDR-induced cytotoxicity by MX (HCT116 cells [1]; 12 mM MX as printed): greatly sensitized
- Sensitization to IUDR-induced cytotoxicity by MX (HCT116/3-6 cells; HCT116/3-6 cells, 12 mM MX as printed): greatly sensitized
- Sensitization to FaraA by MX (EM9 cells; EM9 cells, 6 mM MX): further sensitized
- Sensitization to FaraA by MX (AA8 cells): significantly sensitized
- Sensitization to FaraA by MX (H9T3 cells): significantly sensitized
- Tumor size and tumor cell killing [6]: Reduction in tumor size and tumor cell killing
- Tumor size and tumor cell killing [7]: Reduction in tumor size and tumor cell killing
- Sensitization to the cytotoxicity of Ganciclovir [8]: sensitized
